Experimental data from ChEMBL document CHEMBL5442219.

What was measured:
Settings in all cases: Compound concentration 10 µM
[1] = target: Sodium-dependent serotonin transporter (Homo sapiens) (UniProt P31645)
Description: PDSP Primary Binding target: SLC6A4 - Compounds are tested at 10 uM concentration, plate are incubated at room temperature in the dark for 90 minutes. Reaction are stopped by vacuum filtration onto 0.3% polyethyleneimine soaked filter mats using Filtermate harvester. Scintilation cocktail is then melted onto microwave-dried filters on a hot plate and the radio activity is counted in Microbia counter.

[2] = target: T1, Alpha-1B adrenergic receptor (Homo sapiens) (UniProt P35368)
T1 sequence (whole entry): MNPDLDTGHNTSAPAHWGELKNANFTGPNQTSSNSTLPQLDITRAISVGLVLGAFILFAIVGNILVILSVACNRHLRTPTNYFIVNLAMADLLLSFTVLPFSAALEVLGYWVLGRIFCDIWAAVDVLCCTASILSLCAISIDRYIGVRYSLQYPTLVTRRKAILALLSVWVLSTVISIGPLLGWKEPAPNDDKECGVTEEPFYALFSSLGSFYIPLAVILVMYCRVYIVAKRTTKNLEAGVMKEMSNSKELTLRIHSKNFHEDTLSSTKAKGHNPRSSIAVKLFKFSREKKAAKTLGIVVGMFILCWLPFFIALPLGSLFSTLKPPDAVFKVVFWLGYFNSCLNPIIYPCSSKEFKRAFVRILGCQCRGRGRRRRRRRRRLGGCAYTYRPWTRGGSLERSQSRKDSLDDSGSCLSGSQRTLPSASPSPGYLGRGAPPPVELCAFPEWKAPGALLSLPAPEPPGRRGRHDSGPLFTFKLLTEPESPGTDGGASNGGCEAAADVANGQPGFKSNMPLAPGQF
Description: PDSP Primary Binding target: ADRA1B - Compounds are tested at 10 uM concentration, plate are incubated at room temperature in the dark for 90 minutes. Reaction are stopped by vacuum filtration onto 0.3% polyethyleneimine soaked filter mats using Filtermate harvester. Scintilation cocktail is then melted onto microwave-dried filters on a hot plate and the radio activity is counted in Microbia counter.

[3] = target: Histamine H3 receptor (Homo sapiens) (UniProt Q9Y5N1)
Sequence of Histamine H3 receptor (Homo sapiens) (Q9Y5N1 whole entry): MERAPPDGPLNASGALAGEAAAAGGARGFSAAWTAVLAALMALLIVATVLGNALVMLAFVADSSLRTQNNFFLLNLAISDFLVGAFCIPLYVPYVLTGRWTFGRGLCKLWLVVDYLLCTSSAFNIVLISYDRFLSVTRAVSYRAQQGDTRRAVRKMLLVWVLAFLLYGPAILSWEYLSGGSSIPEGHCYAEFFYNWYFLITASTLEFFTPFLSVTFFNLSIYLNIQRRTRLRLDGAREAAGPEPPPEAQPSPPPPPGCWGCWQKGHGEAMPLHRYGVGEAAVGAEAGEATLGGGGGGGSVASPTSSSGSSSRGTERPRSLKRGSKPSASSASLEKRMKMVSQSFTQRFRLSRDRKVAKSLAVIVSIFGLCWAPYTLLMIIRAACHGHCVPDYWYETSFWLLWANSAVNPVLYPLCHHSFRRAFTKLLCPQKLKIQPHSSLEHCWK
Description: PDSP Primary Binding target: HRH3 - Compounds are tested at 10 uM concentration, plate are incubated at room temperature in the dark for 90 minutes. Reaction are stopped by vacuum filtration onto 0.3% polyethyleneimine soaked filter mats using Filtermate harvester. Scintilation cocktail is then melted onto microwave-dried filters on a hot plate and the radio activity is counted in Microbia counter.

[4] = target: T2, Alpha-1A adrenergic receptor (Homo sapiens) (UniProt P35348)
T2 sequence (whole entry): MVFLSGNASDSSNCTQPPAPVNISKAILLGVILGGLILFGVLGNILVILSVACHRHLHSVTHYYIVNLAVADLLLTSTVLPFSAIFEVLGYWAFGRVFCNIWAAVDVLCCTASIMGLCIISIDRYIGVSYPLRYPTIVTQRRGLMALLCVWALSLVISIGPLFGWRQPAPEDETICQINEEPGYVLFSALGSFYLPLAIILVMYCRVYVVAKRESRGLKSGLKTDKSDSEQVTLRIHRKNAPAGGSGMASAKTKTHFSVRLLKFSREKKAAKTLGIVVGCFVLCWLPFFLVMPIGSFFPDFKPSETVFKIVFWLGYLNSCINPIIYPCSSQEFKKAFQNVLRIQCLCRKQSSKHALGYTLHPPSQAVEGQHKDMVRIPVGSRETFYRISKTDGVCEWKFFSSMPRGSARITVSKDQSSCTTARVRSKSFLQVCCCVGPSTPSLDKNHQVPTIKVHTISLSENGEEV
Description: PDSP Primary Binding target: ADRA1A - Compounds are tested at 10 uM concentration, plate are incubated at room temperature in the dark for 90 minutes. Reaction are stopped by vacuum filtration onto 0.3% polyethyleneimine soaked filter mats using Filtermate harvester. Scintilation cocktail is then melted onto microwave-dried filters on a hot plate and the radio activity is counted in Microbia counter.

[5] = target: 5-hydroxytryptamine receptor 6 (Homo sapiens) (UniProt P50406)
Sequence of 5-hydroxytryptamine receptor 6 (Homo sapiens) (P50406 whole entry): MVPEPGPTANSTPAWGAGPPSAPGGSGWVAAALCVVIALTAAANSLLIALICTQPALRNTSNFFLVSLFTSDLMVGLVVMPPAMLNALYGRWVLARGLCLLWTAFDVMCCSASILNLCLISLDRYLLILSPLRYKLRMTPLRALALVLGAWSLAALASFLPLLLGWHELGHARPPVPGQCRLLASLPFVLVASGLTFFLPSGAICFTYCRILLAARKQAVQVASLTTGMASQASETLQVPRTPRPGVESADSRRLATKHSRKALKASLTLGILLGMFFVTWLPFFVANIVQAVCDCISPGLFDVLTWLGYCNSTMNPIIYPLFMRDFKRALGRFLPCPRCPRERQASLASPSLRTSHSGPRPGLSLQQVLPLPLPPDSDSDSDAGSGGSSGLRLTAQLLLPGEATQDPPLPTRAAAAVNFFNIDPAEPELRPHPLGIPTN
Description: PDSP Primary Binding target: HTR6 - Compounds are tested at 10 uM concentration, plate are incubated at room temperature in the dark for 90 minutes. Reaction are stopped by vacuum filtration onto 0.3% polyethyleneimine soaked filter mats using Filtermate harvester. Scintilation cocktail is then melted onto microwave-dried filters on a hot plate and the radio activity is counted in Microbia counter.

[6] = target: T3, Alpha-2B adrenergic receptor (Homo sapiens) (UniProt P18089)
T3 sequence (whole entry): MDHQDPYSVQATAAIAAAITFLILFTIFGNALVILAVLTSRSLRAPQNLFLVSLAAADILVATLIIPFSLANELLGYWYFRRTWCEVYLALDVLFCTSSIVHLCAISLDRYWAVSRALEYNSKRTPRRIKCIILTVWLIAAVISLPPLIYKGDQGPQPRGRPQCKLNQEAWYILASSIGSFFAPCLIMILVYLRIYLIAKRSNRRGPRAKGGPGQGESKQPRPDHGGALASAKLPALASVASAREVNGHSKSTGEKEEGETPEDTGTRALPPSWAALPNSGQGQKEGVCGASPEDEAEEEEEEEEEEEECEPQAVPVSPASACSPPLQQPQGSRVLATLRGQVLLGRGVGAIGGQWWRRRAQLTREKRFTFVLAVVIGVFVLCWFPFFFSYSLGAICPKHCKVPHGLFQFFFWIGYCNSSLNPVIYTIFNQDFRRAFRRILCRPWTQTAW
Description: PDSP Primary Binding target: ADRA2B - Compounds are tested at 10 uM concentration, plate are incubated at room temperature in the dark for 90 minutes. Reaction are stopped by vacuum filtration onto 0.3% polyethyleneimine soaked filter mats using Filtermate harvester. Scintilation cocktail is then melted onto microwave-dried filters on a hot plate and the radio activity is counted in Microbia counter.

[7] = target: Mu-type opioid receptor (Homo sapiens) (UniProt P35372)
Sequence of Mu-type opioid receptor (Homo sapiens) (P35372 whole entry): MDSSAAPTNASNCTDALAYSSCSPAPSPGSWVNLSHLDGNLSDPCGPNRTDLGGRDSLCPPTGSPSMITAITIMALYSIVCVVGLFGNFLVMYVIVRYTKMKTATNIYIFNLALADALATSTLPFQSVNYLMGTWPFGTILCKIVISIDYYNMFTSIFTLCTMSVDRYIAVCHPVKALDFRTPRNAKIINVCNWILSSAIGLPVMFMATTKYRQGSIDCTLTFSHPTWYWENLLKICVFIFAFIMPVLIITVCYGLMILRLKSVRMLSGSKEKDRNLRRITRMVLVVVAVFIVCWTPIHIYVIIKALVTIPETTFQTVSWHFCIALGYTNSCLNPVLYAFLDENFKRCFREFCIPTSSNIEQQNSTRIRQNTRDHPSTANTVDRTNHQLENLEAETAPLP
Description: PDSP Primary Binding target: OPRM1 - Compounds are tested at 10 uM concentration, plate are incubated at room temperature in the dark for 90 minutes. Reaction are stopped by vacuum filtration onto 0.3% polyethyleneimine soaked filter mats using Filtermate harvester. Scintilation cocktail is then melted onto microwave-dried filters on a hot plate and the radio activity is counted in Microbia counter.

[8] = target: T4, 5-hydroxytryptamine receptor 1A (Homo sapiens) (UniProt P08908)
T4 sequence (whole entry): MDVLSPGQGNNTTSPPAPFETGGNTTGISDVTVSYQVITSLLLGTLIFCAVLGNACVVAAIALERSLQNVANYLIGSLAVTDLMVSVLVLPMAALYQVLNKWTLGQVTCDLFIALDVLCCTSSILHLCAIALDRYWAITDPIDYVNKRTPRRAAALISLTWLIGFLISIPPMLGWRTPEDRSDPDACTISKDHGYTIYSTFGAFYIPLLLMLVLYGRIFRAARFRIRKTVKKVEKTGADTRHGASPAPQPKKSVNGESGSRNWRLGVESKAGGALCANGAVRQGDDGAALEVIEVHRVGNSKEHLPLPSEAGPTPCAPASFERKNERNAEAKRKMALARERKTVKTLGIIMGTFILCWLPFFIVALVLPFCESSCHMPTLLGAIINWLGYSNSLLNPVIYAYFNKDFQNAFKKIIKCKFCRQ
Description: PDSP Primary Binding target: HTR1A - Compounds are tested at 10 uM concentration, plate are incubated at room temperature in the dark for 90 minutes. Reaction are stopped by vacuum filtration onto 0.3% polyethyleneimine soaked filter mats using Filtermate harvester. Scintilation cocktail is then melted onto microwave-dried filters on a hot plate and the radio activity is counted in Microbia counter.

[9] = target: D(1A) dopamine receptor (Homo sapiens) (UniProt P21728)
Sequence of D(1A) dopamine receptor (Homo sapiens) (P21728 whole entry): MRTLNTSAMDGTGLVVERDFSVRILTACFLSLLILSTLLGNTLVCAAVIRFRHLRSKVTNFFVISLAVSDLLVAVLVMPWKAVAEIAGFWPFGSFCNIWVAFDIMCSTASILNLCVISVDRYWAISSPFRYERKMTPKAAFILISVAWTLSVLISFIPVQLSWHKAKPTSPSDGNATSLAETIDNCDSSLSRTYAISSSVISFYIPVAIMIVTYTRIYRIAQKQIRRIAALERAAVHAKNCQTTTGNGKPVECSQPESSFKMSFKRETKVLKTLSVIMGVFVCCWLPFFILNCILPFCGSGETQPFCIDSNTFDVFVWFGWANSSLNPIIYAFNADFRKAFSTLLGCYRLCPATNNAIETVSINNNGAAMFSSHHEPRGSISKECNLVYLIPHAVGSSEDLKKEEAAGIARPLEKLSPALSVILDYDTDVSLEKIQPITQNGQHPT
Description: PDSP Primary Binding target: DRD1 - Compounds are tested at 10 uM concentration, plate are incubated at room temperature in the dark for 90 minutes. Reaction are stopped by vacuum filtration onto 0.3% polyethyleneimine soaked filter mats using Filtermate harvester. Scintilation cocktail is then melted onto microwave-dried filters on a hot plate and the radio activity is counted in Microbia counter.

[10] = target: D(1B) dopamine receptor (Homo sapiens) (UniProt P21918)
Sequence of D(1B) dopamine receptor (Homo sapiens) (P21918 whole entry): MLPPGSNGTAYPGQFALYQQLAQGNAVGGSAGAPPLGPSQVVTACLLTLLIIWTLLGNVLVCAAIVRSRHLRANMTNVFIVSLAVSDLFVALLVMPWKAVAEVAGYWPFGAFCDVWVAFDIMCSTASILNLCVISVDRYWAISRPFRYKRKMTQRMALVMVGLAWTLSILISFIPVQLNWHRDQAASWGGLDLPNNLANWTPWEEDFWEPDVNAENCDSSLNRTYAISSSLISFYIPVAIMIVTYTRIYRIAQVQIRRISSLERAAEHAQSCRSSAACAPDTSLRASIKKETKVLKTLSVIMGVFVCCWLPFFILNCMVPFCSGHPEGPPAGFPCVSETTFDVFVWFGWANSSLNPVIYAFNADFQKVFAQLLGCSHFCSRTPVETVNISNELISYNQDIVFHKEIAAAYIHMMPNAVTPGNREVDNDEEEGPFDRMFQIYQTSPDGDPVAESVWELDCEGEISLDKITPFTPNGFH
Description: PDSP Primary Binding target: DRD5 - Compounds are tested at 10 uM concentration, plate are incubated at room temperature in the dark for 90 minutes. Reaction are stopped by vacuum filtration onto 0.3% polyethyleneimine soaked filter mats using Filtermate harvester. Scintilation cocktail is then melted onto microwave-dried filters on a hot plate and the radio activity is counted in Microbia counter.

[11] = target: D(2) dopamine receptor (Homo sapiens) (UniProt P14416)
Sequence of D(2) dopamine receptor (Homo sapiens) (P14416 whole entry): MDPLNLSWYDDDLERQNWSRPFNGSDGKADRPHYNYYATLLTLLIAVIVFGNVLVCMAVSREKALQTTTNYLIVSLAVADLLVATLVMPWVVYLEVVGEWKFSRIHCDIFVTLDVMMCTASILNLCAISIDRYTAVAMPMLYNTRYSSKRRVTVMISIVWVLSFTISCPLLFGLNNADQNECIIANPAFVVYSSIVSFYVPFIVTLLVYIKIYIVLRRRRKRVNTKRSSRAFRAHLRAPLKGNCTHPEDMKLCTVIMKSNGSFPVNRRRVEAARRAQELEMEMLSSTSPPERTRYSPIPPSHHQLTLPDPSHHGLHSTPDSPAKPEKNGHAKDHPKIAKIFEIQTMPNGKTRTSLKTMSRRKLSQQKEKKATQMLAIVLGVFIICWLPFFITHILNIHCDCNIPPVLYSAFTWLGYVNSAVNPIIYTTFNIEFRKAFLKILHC
Description: PDSP Primary Binding target: DRD2 - Compounds are tested at 10 uM concentration, plate are incubated at room temperature in the dark for 90 minutes. Reaction are stopped by vacuum filtration onto 0.3% polyethyleneimine soaked filter mats using Filtermate harvester. Scintilation cocktail is then melted onto microwave-dried filters on a hot plate and the radio activity is counted in Microbia counter.

[12] = target: T5, Muscarinic acetylcholine receptor M4 (Homo sapiens) (UniProt P08173)
T5 sequence (whole entry): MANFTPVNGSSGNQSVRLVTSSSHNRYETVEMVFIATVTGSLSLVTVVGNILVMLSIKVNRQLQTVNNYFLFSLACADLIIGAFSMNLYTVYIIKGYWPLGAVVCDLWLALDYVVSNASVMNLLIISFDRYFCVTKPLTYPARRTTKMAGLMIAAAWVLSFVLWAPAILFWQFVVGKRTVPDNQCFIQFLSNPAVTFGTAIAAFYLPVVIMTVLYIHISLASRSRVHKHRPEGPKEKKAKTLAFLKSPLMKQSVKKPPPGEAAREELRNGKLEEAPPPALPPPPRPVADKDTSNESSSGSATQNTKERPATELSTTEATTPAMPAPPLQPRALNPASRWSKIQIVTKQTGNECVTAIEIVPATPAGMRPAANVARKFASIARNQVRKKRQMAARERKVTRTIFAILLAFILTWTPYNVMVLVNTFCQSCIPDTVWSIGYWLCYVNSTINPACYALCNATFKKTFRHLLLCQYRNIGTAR
Description: PDSP Primary Binding target: CHRM4 - Compounds are tested at 10 uM concentration, plate are incubated at room temperature in the dark for 90 minutes. Reaction are stopped by vacuum filtration onto 0.3% polyethyleneimine soaked filter mats using Filtermate harvester. Scintilation cocktail is then melted onto microwave-dried filters on a hot plate and the radio activity is counted in Microbia counter.

[13] = target: Muscarinic acetylcholine receptor M3 (Homo sapiens) (UniProt P20309)
Sequence of Muscarinic acetylcholine receptor M3 (Homo sapiens) (P20309 whole entry, looked up): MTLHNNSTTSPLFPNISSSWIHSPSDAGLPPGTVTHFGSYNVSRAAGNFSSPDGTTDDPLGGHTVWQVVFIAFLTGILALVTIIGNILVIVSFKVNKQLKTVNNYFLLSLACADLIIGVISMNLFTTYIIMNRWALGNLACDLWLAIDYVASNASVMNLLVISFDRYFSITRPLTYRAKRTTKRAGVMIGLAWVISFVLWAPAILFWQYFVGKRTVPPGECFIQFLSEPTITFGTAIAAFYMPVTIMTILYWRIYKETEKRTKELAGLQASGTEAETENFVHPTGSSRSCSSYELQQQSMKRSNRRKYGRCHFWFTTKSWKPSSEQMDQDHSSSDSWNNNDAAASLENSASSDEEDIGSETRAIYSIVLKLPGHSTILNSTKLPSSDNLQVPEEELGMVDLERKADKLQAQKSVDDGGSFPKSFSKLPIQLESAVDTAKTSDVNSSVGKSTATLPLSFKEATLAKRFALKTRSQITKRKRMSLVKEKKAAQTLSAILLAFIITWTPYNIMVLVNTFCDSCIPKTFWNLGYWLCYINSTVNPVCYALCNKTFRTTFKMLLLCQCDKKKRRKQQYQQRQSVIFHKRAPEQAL
Description: PDSP Primary Binding target: CHRM3 - Compounds are tested at 10 uM concentration, plate are incubated at room temperature in the dark for 90 minutes. Reaction are stopped by vacuum filtration onto 0.3% polyethyleneimine soaked filter mats using Filtermate harvester. Scintilation cocktail is then melted onto microwave-dried filters on a hot plate and the radio activity is counted in Microbia counter.

Sequence of Sodium-dependent serotonin transporter (Homo sapiens) (P31645 whole entry, looked up): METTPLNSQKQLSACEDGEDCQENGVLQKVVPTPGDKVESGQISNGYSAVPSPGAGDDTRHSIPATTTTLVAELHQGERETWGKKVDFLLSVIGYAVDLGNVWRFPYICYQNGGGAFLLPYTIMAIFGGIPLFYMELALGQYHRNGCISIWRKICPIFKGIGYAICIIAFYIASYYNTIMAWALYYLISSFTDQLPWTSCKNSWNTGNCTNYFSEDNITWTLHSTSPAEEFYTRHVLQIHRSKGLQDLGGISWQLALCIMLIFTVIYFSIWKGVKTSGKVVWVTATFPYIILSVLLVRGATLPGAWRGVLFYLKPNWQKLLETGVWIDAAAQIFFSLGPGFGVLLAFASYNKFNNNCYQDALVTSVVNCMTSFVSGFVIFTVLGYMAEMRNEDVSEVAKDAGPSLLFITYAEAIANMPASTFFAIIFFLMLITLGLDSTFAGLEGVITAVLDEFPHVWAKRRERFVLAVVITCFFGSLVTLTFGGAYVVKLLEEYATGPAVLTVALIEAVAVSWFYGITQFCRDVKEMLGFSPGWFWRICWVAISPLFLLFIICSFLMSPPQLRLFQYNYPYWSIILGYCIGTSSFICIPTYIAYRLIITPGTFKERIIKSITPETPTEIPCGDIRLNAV

| SMILES | inhibition [1] | inhibition [2] | inhibition [3] | inhibition [4] | inhibition [5] | inhibition [6] | inhibition [7] | inhibition [8] | inhibition [9] | inhibition [10] | inhibition [11] | inhibition [12] | inhibition [13] |
| --- | --- | --- | --- | --- | --- | --- | --- | --- | --- | --- | --- | --- | --- |
| O=c1ccc2ccc(OCCCCN3CCN(c4cccc5sccc45)CC3)cc2[nH]1 | 98.2% | 97.3% | 54.5% | 100% | 101% | 94.3% | 26.8% | 103% | 82.6% | 88.1% | 104% | 30.5% | 21.4% |
| Cc1nn(C)c(C)c1-c1cccc2c1CC[C@H](N(C)C)C2 | 3.62% | 1.62% |  | 15.3% | -8.86% | 92.2% | 14.6% | 51.8% | 19.8% | 26% | 32.7% | 5.06% | 44.1% |
| Cc1ccc2c(c1)c1c(n2CCc2ccc(C)nc2)CCN(C)C1 | -8.68% | 85% | 16.2% | 88.6% | 90.6% | 91.7% | 2.42% | 39.1% | 39.2% | 32.6% | 57.8% | 5.78% | 18% |
| Cc1cc([C@@H](C)Nc2cccc(-c3cc(C)c(C(=O)N[C@@H](C)C(=O)O)c(C)c3)c2)ccc1Cl | -8.16% |  | 10% | 11.3% | -2.64% | 24.6% | 16.5% | 3.66% | 14% | 5.13% | 7.32% | 7.41% | -4.86% |
| CCCNS(=O)(=O)Nc1ncnc(OCCOc2ncc(Br)cn2)c1-c1ccc(Br)cc1 | 67.2% | 12.1% | 1.52% |  | 2.99% |  | 30.6% | 9.06% |  | -1.25% | 15.2% | 6.06% | 20.8% |
| OCc1cc(C(O)CNCCCCCCOCCCCc2ccccc2)ccc1O (configuration not stated) | 91.4% | 47.7% | 23.3% | 77% | 18% | 74.1% | 6.99% | 27.8% | 6.76% | 19.6% | 10.9% |  | -8.98% |
| CS(=O)(=O)NC[C@H]1CC[C@H](Nc2nc3c(s2)CCSc2ccccc2-3)CC1 | 13.6% | -8.21% | -7.45% | -9.44% | 35% | 23.8% | -6.3% | 35.6% | 14.1% | -6.36% | 4.83% |  | -7.8% |
| Cc1c(F)cccc1NC(=O)Nc1ccc(Cl)c(S(=O)(=O)[C@H]2CCCNC2)c1O | -2.95% |  |  | 19.2% | -2.87% | 3.18% | -3.61% |  |  | 3.67% | 11.7% | -3.99% | 22.8% |
| CNc1nc(NCc2ccc(NS(C)(=O)=O)cc2Cl)cc(-c2ccccn2)n1 | 42.1% | 26.4% | -8.26% | 8% | 47% | 24.4% | 14.5% | 0.99% | 7.8% |  | -4.41% | 9.44% | -1.96% |
| CCC[C@H](Oc1cc(C)c(-n2cc(C(F)(F)F)cn2)c(C)c1)c1ccc(C(=O)NCCC(=O)O)cc1 | -5.66% |  | 11.1% | 8.94% | -2.41% | -4.35% | 11% | -2.47% | 20.2% | 11.7% | 8.21% | 3.44% | -0.42% |
| NCCc1c[nH]c2ccc(C(N)=O)cc12 | 49.3% | 3.04% |  | -9.81% | 88.4% | 24.8% | 28.8% | 91.4% |  |  | 55.9% | -6.09% | 3.95% |
| CN(C)S(=O)(=O)c1ccc(NC(=S)N2CCC(C(O)(c3ccccc3)c3ccccc3)CC2)cc1 | 16% | -3.51% |  | -0.67% | 8.14% | 14.4% | 2.22% | 10.5% | 21.9% | 5.17% | 23.4% | -6.86% | -7.46% |
| O=C(O)CC1CCC2(CC1)CCN(c1cc(OC(F)(F)F)ccc1Cl)CC2 | 29.8% | 0.25% | 7.59% | -7.1% | 14.2% |  | 34.3% | -1.2% |  | -2.48% | 18.6% | 7.8% | -5.1% |
| COc1ccccc1N1CCN(CCCCNC(=O)c2ccc3ccccc3c2)CC1 | 83.7% | 96.8% | 49.6% | 98.8% | 37.4% | 99.5% | 79.8% | 108% | 73.4% |  | 91.8% | 0.77% | 3.09% |
